# Source: patent US20230357239A1, “PYRIDO[2,3-D]PYRIMIDIN-4-AMINES AS SOS1 INHIBITORS” (Bayer Aktiengesellschaft, priority 2020, published 2023)
# Molecular target: human SOS1 (SOS1) with human K-RasG12C (Homo sapiens (Human), UniProt Q07889)
# Assay: hK-RasG12C interaction assay with hSOS1 (HTRF)
# Type: binding
# Conditions: GST-hK-RasG12C and His-hSOS1, 60 min incubation at 20° C, mean, read-out: K-RasG12C - SOS interaction assay IC50 - [mol/l] (mean)
# Method: Biochemical Assay: hK-RasG12C Interaction Assay with hSOS1
# This assay quantifies the equilibrium interaction of human SOS1 (SOS1) with human K-Ras^G12C (K-RasG12C). Detection of the interaction is achieved by measuring homogenous time-resolved fluorescence resonance energy transfer (HTRF) from antiGST-Europium (FRET donor) bound to GST-K-RasG12C to anti-6His-XL665 bound to His-tagged hSOS1 (FRET-acceptor).
# The assay buffer containes 5 mM HEPES pH 7.4 (Applichem), 150 mM NaCl (Sigma), 10 mM EDTA (Promega), 1 mM DTT (Thermofisher), 0.05% BSA Fraction V, pH 7.0, (ICN Biomedicals), 0.0025% (v/v) Igepal (Sigma) and 100 mM KF (FLUKA).
# Concentrations of protein batches used are optimized to be within the linear range of the HTRF signal. A Ras working solution is prepared in assay buffer containing typically 10 nM GST-hK-RasG12C and 2 nM antiGST-Eu(K) (Cisbio, France). A SOS1 working solution is prepared in assay buffer containing typically 20 nM His-hSOS1 and 10 nM anti-6His-XL665 (Cisbio, France). An inhibitor control solution is prepared in assay buffer containing 10 nM anti-6His-XL665 without SOS1.
# Fifty nl of a 100-fold concentrated solution of the test compound in DMSO are transferred into a black microtiter test plate (384 or 1536, Greiner Bio-One, Germany).
# For this, either a Hummingbird liquid handler (Digilab, MA, USA) or an Echo acoustic system (Labcyte, CA, USA) is used.
# All steps of the assay are performed at 20° C. A volume of 2.5 μl of the Ras working solution is added to all wells of the test plate using a Multidrop dispenser (Thermo Labsystems). After 2 min preincubation, 2.5 μl of the SOS1 working solution are added to all wells except for those wells at the side of the test plate that are subsequently filled with 2.5 μl of the inhibitor control solution. After 60 min incubation the fluorescence is measured with a Pherastar (BMG, Germany) using the HTRF module (excitation 337 nm, emission 1: 620 nm, emission 2: 665 nm).
# The ratiometric data (emission 2 divided by emission 1) are normalized using the controls (DMSO=0% inhibition, inhibition control wells with inhibitor control solution=100% inhibition). […] IC50 values are calculated by 4-Parameter fitting using a commercial software package (Genedata Screener, Switzerland).
# human SOS1 (SOS1) with human K-RasG12C, sequence (Q07889 564-1049): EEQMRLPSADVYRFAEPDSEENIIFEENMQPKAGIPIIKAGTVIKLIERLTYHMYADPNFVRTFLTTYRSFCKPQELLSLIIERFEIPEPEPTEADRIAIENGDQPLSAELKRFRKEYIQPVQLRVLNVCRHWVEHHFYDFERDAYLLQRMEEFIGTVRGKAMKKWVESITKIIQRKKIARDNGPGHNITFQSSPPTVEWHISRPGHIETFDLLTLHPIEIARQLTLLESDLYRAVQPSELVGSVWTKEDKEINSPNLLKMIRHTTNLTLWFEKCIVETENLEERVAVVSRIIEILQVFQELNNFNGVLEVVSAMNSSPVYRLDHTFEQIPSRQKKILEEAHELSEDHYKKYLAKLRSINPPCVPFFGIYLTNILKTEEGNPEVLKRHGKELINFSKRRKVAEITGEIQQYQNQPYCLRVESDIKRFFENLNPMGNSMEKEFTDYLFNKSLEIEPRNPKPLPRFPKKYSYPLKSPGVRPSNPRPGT
row,IC50,Structure (SMILES)
1,2.53 nM,"CC(=O)N1CCN(c2cnc3nc(C)nc(N[C@H](C)c4cccc(C(F)(F)F)c4C)c3c2)C(=O)C1 [Example 61, 4-acetyl-1-[2-methyl-4-({(1R)-1-[2-methyl-3-(trifluoromethyl)phenyl]ethyl}amino)pyrido[2,3-d]pyrimidin-6-yl]piperazin-2-one]"
2,14.1 nM,"CC(=O)N1CC=C(c2cc3c(N[C@H](C)c4cccc(C(F)F)c4F)nc(C)nc3nc2C)CC1 [Example 56, 1-{4-[4-({(1R)-1-[3-(difluoromethyl)-2-fluorophenyl]ethyl}amino)-2,7-dimethylpyrido[2,3-d]pyrimidin-6-yl]-3,6-dihydropyridin-1(2H)-yl}ethan-1-one]"
3,16.1 nM,"CC(=O)N1CC(c2cnc3nc(C)nc(N[C@H](C)c4cccc(C(F)(F)F)c4C)c3c2)C1 [Example 40, 1-{3-[2-methyl-4-({(1R)-1-[2-methyl-3-(trifluoromethyl)phenyl]ethyl}amino)pyrido[2,3-d]pyrimidin-6-yl]azetidin-1-yl}ethan-1-one]"
4,5.78 nM,"CC(=O)N1CC=C(c2cnc3nc(C)nc(N[C@H](C)c4cccc(C(F)(F)F)c4C)c3c2)CC1 [Example 25, 1-{4-[2-methyl-4-({(1R)-1-[2-methyl-3-(trifluoromethyl)phenyl]ethyl}amino)pyrido[2,3-d]pyrimidin-6-yl]-3,6-dihydropyridin-1(2H)-yl}ethan-1-one]"
5,805 nM,"COc1nc2nc(C)nc(N[C@H](C)c3cccc(C(F)(F)F)c3C)c2cc1C1CCN(C(C)=O)CC1 [Example 22, 1-{4-[7-methoxy-2-methyl-4-({(1R)-1-[2-methyl-3-(trifluoromethyl)phenyl]ethyl}amino)pyrido[2,3-d]pyrimidin-6-yl]piperidin-1-yl}ethan-1-one]"
6,7.96 nM,"CC(=O)N1CC2(CC=C(c3cnc4nc(C)nc(N[C@H](C)c5cccc(C(F)(F)F)c5C)c4c3)CC2)C1 [Example 27, 1-{7-[2-methyl-4-({(1R)-1-[2-methyl-3-(trifluoromethyl)phenyl]ethyl}amino)pyrido[2,3-d]pyrimidin-6-yl]-2-azaspiro[3.5]non-6-en-2-yl}ethan-1-one]"
7,949 nM,"COc1nc2nc(C)nc(N[C@H](C)c3cccc(C(F)(F)F)c3C)c2cc1C1=CCN(C(C)=O)CC1 [Example 21, 1-{4-[7-methoxy-2-methyl-4-({(1R)-1-[2-methyl-3-(trifluoromethyl)phenyl]ethyl}amino)pyrido[2,3-d]pyrimidin-6-yl]-3,6-dihydropyridin-1(2H)-yl}ethan-1-one]"
8,23 nM,"CC(=O)N1CC=C(c2cc3c(N[C@H](C)c4cccc(C(F)(F)F)c4C)nc(C)nc3nc2C(F)(F)F)CC1 [Example 41, 1-{4-[2-methyl-4-({(1R)-1-[2-methyl-3-(trifluoromethyl)phenyl]ethyl}amino)-7-(trifluoromethyl)pyrido[2,3-d]pyrimidin-6-yl]-3,6-dihydropyridin-1(2H)-yl}ethan-1-one]"

# Further lines, the compound ahead of its results:
row,Structure (SMILES),IC50
1,"COc1cnc2nc(C)nc(N[C@H](C)c3cccc(C(F)(F)F)c3C)c2c1 [Example 32, 6-methoxy-2-methyl-N-{(1R)-1-[2-methyl-3-(trifluoromethyl)phenyl]ethyl}pyrido[2,3-d]pyrimidin-4-amine]",66.4 nM
2,"CC(=O)N1CC2(C1)CN(c1cc3c(N[C@H](C)c4cccc(C(F)F)c4F)nc(C)nc3nc1C(F)(F)F)C2 [Example 69, 1-{6-[4-({(1R)-1-[3-(difluoromethyl)-2-fluorophenyl]ethyl}amino)-2-methyl-7-(trifluoromethyl)pyrido[2,3-d]pyrimidin-6-yl]-2,6-diazaspiro[3.3]heptan-2-yl}ethan-1-one]",29.5 nM
3,"CC(=O)N1CCC(c2cnc3ncnc(N[C@H](C)c4cccc(C(F)(F)F)c4)c3c2)CC1 [Example 9, 1-{4-[4-({(1R)-1-[3-(trifluoromethyl)phenyl]ethyl}amino)pyrido[2,3-d]pyrimidin-6-yl]piperidin-1-yl}ethan-1-one]",64.3 nM
4,"Cc1nc(N[C@H](C)c2cccc(C(F)F)c2F)c2cc(N3CCCS3(=O)=O)c(C)nc2n1 [Example 39, 2-[4-({(1R)-1-[3-(difluoromethyl)-2-fluorophenyl]ethyl}amino)-2,7-dimethylpyrido[2,3-d]pyrimidin-6-yl]-1 lambda^6,2-thiazolidine-1,1-dione]",16.2 nM
5,"CC(=O)N1CC2(CCC(c3cnc4nc(C)nc(N[C@H](C)c5cccc(C(F)(F)F)c5C)c4c3)CC2)C1 [Example 28, 1-{7-[2-methyl-4-({(1R)-1-[2-methyl-3-(trifluoromethyl)phenyl]ethyl}amino)pyrido[2,3-d]pyrimidin-6-yl]-2-azaspiro[3.5]nonan-2-yl}ethan-1-one]",9.4 nM
6,"CC(=O)N1CC2(C1)CN(c1cc3c(N[C@H](C)c4cccc(C(F)(F)F)c4C)nc(C)nc3nc1C(F)(F)F)C2 [Example 71, 1-{6-[2-methyl-4-({(1R)-1-[2-methyl-3-(trifluoromethyl)phenyl]ethyl}amino)-7-(trifluoromethyl)pyrido[2,3-d]pyrimidin-6-yl]-2,6-diazaspiro[3.3]heptan-2-yl}ethan-1-one]",5.78 nM
7,"CC(=O)N[C@@H]1CCN(c2cnc3nc(C)nc(N[C@H](C)c4cccc(C(F)(F)F)c4C)c3c2)C1 [Example 16, N-{(3R)-1-[2-methyl-4-({(1R)-1-[2-methyl-3-(trifluoromethyl)phenyl]ethyl}amino)pyrido[2,3-d]pyrimidin-6-yl]pyrrolidin-3-yl}acetamide]",17.5 nM
8,"CC(=O)N1CC=C(c2cnc3ncnc(N[C@H](C)c4cccc(C(F)(F)F)c4)c3c2)CC1 [Example 5, 1-{4-[4-({(1R)-1-[3-(trifluoromethyl)phenyl]ethyl}amino)pyrido[2,3-d]pyrimidin-6-yl]-3,6-dihydropyridin-1(2H)-yl}ethan-1-one]",4.24 nM
9,"Cc1nc(N[C@H](C)c2cccc(C(F)(F)F)c2C)c2cc(N3CCN(C)CC3)cnc2n1 [Example 15, 2-methyl-6-(4-methylpiperazin-1-yl)—N-{(1R)-1-[2-methyl-3-(trifluoromethyl)phenyl]ethyl}pyrido[2,3-d]pyrimidin-4-amine]",10.6 nM
10,"C[C@@H](Nc1ncnc2ncc(N3CCN(C)CC3)cc12)c1cccc(C(F)(F)F)c1 [Example 3, 6-(4-methylpiperazin-1-yl)—N-{(1R)-1-[3-(trifluoromethyl)phenyl]ethyl}pyrido[2,3-d]pyrimidin-4-amine]",13.9 nM
11,"Cc1nc(N[C@H](C)c2cccc(C(F)(F)F)c2C)c2cc(Br)cnc2n1 [Example 6, 6-bromo-2-methyl-N-{(1R)-1-[2-methyl-3-(trifluoromethyl)phenyl]ethyl}pyrido[2,3-d]pyrimidin-4-amine]",251 nM
12,"Cc1nc(N[C@H](C)c2cccc(C(F)(F)F)c2C)c2cc(N3CCCS3(=O)=O)c(C)nc2n1 [Example 58, 2-[2,7-dimethyl-4-({(1R)-1-[2-methyl-3-(trifluoromethyl)phenyl]ethyl}amino)pyrido[2,3-d]pyrimidin-6-yl]-1 lambda^6,2-thiazolidine-1,1-dione]",15.9 nM
13,"CC(=O)N1CCC(c2cc3c(N[C@H](C)c4cccc(C(F)(F)C(C)(C)O)c4F)nc(C)nc3nc2C)CC1 [Example 66, 1-{4-[4-({(1R)-1-[3-(1,1-difluoro-2-hydroxy-2-methylpropyl)-2-fluorophenyl]ethyl}amino)-2,7-dimethylpyrido[2,3-d]pyrimidin-6-yl]piperidin-1-yl}ethan-1-one]",3.18 nM
